Reference: patent publication US9878984B2, “Anti-cancer compounds” (NORTHWESTERN UNIVERSITY, priority 2008, dated 2018)

Columns and labels:
[1] = system: HeLa cells; experiment: Transwell invasion assay; assay type: cell-based, human; conditions: [GI99%], matrigel, 20 hr
Procedure: Transwell Invasion Assay: HeLa cells were plated at 250,000 per 35 mm well and allowed to attach for 8 hr. The cells were washed with PBS and then treated for 4 hr with the [GI99%] of each compound (or 1% DMSO—vehicle control) in serum free media to decrease the number of invading cells in the beginning of the experiment due to a preliminary lack of drug exposure. The cells were then trypsinized and counted by trypan blue exclusion with a hemacytometer (Sigma—St. Louis, Mo.). Eight micron pore size control well inserts for 12 well plates (BD Biosciences) were coated with 100 μL 1 mg/mL matrigel (Sigma—St. Louis, Mo.) and allowed to solidify at room temperature for 1 hr. The excess matrigel was aspirated and the inserts were gently washed with PBS. The cells were seeded at a density of 300,000 per insert well in a volume of 500 μL serum free media containing a derivative or vehicle. The inserts were then placed in wells containing 700 μL serum free media with the respective compound. After 20 hr the cells on the top of the membranes were gently removed with a cotton swab, the membranes then were fixed in methanol for 1 min, stained in Gills No. 3 Hematoxylin (Sigma—St. Louis, Mo.) for 5 min, rinsed in tap water, and allowed to dry overnight. The membranes were excised, mounted on slides, and the cells were counted under the 40× objective of a bright field microscope. The data are expressed as the average total number of invading cells counted in 20 fields of each membrane, as standardized to the vehicle control, from six experiments.
Effect of derivatives on the malignant phenotype—invasion assay: If A1-A9 have differential targets, DNA binding specificity, or downstream effects they may differentially alter the malignant behavior of cells. Also, anti-cancer compounds can be efficacious against tumors in other ways besides inhibiting growth and inducing death of cancer cells; they can also alter the behavior of malignant cells. Therefore, the ability of A1-A9 and amonafide to alter the invasive behavior of cancer cells in a transwell (also known as Boyden chamber) invasion assay was evaluated, which determines the ability of cells to migrate through a proteinacious gel. This behavior is considered to be representative of cancer cell invasion through the basement membrane of the primary tumor environment. In this assay, treated cells are seeded on to the top of the matrigel-coated porous membrane, allowed to invade through the proteinacious gel onto the underside of the membrane, and then counted.

[2] = system: Chk2; experiment: DNA damage response assay (pThr68-Chk2 / total Chk2 western blot); assay type: cell-based, human; conditions: HeLa cells, [GI99%], 20 hr, normalized to mitoxantrone
Procedure: DNA Damage Response Assay: 250,000 HeLa cells were plated in 35 mm culture dishes and allowed to attach for 8 hr and were then treated with the [GI99%] of each compound for 20 hr (total media volume was […] with 1% DMSO). After treatment cells were lysed in 150 μL detergent buffer containing 1:100 v/v protease inhibitor cocktail (Sigma—St. Louis, Mo.). Lysates were run on denaturing 12% acrylamide gels and transferred to nitrocellulose membranes. The membranes were blocked in blotto, incubated in anti-pThr68-Chk2 antibody (Cell Signaling—Danvers, Mass.) at 1:500 v/v dilution in blotto overnight 4° C., washed, incubated in HRP conjugated anti-rabbit secondary antibody (Jackson) at 1:5,000 v/v dilution in blotto for 1 hr, and then developed. The membranes were then stripped with a reducing buffer, blocked in blotto, incubated in anti-Chk2 antibody (Biolegend—San Diego, Calif.) at 1:500 v/v dilution in blotto overnight at 4° C., washed, incubated in HRP conjugated anti-mouse secondary antibody (Jackson) at 1:5,000 v/v dilution in blotto for 1 hr, and then developed. Membranes were developed with PicoWest Developing Solution (Pierce) and exposed to film. The intensities of bands were quantified as described in the previous section. The data are expressed as the average ratio of pThr68-Chk2 to total Chk2 as normalized to the mitoxantrone control in each of three independent experiments.
Topoisomerase inhibition by most mechanisms should cause activation of DNA damage response pathways because of the production of single and double strand DNA breaks, as is the case with amonafide. […] Therefore, measuring the DNA damage response at a fixed cytotoxic dose ([GI99%]) will determine the extent that DNA damage contributes to the cytotoxicity of these compounds. […] Activation of Chk2 was determined by measuring the ratio of pThr68-Chk2 to total Chk2 in HeLa cells treated with the [GI99%].

[3] = system: HeLa, PC-3M, and MDA-MB-231; experiment: MTS growth inhibition assay, human cancer cell lines; assay type: cell-based; conditions: 72 hr, MTS proliferation assay
Procedure: Cell Culture: HeLa (cervical carcinoma), WI-38 (normal human […] fibroblasts), and MDA-MB-231 (breast carcinoma), cells were cultured in DMEM (Invitrogen—Carlsbad, Calif.) and PC-3M (metastatic prostate carcinoma) cells were cultured in RPMI-1640. Peripheral blood mononuclear cells (PBMCs) were voluntarily collected from a healthy laboratory worker by standard sterile phlebotomy techniques and isolated using Vacutainer CPT collection tubes (BD Biosciences—Bedford, Mass.). PBMCs were isolated freshly for each experiment. All DMEM and RPMI-1640 media was supplemented with 10% FBS (Atlanta Biologicals—Lawrenceville, Ga.) and 100 U/mL penicillin and streptomycin (Invitrogen). […]
Growth Inhibition Assays: HeLa, MDA-MB-231, PC-3M, WI-38, and HUVEC cells were plated at 5,000 cells per well in 96 well plates and allowed to attach for 20 hr (8 hr for HeLa). […] Cell proliferation was measured at t=0 (time at start of treatment) and t=72 hr using MTS AQueous non-radioactive proliferation assay (Promega—Madison, Wis.). […] The absorbance at 490 nm in each well was read with a Spectramax 250 plate reader (Molecular Devices—Sunnyvale, Calif.). […] Data were fit to one site dose response curves in order to obtain specific growth inhibitory concentrations and the relative standard errors of the mean for these concentrations were calculated by the XLfit4 software. […]

[4] = system: pBR322 plasmid DNA; experiment: DNA intercalation assay (topoisomerase I based plasmid DNA unwinding); assay type: biochemical; conditions: 10, 31.6, and 100 μM, human topoisomerase I
Procedure: DNA Intercalation Assay: A DNA unwinding assay was performed as previously described with minor modifications. Four Units of recombinant wild type human topoisomerase I (Topogen—Port Orange, Fla.) were incubated with reaction buffer (included with enzyme), ˜0.5 μg of pBR322 plasmid DNA, which is a mixture of form I and form II plasmid DNA, and water added to a final volume of 19 μL. The reactions were incubated at 37° C. for 30 min and then 1 μL of each compound was added to give a final concentration of 10, 31.6, and 100 μM (final solvent concentration of 1% DMSO) and the reaction mixture was incubated at 37° C. for another 30 min. The reaction was stopped by the addition of 5 μL gel loading dye. The samples were immediately loaded onto a 1% agarose gel and electrophoresis was performed at 50 V for 3 h at room temperature. Pictures of the gels were obtained using a Kodak Image Station 440 CF (Kodak—Rochester, N.Y.) equipped with a UV source.
This activity depends on the ability of these compounds to intercalate DNA, which is the proposed mechanism of cytotoxic action of amonafide and its analogs. Therefore, the intercalation of plasmid DNA by A1-A9 was compared with the intercalation by amonafide to determine if they behave similarly. A topoisomerase I (topo I) based plasmid DNA unwinding assay was used to determine the intercalation of each compound [1]. […]

[5] = system: Normal cells (PBMC, HUVEC, and WI-38); experiment: Cancer cell selective growth inhibition (cancer cells vs normal cells); assay type: cell-based, human; conditions: 72 hr MTS
Procedure: […] Peripheral blood mononuclear cells (PBMCs) were voluntarily collected from a healthy laboratory worker by standard sterile phlebotomy techniques and isolated using Vacutainer CPT collection tubes (BD Biosciences—Bedford, Mass.). PBMCs were isolated freshly for each experiment. All DMEM and RPMI-1640 media was supplemented with 10% FBS (Atlanta Biologicals—Lawrenceville, Ga.) and 100 U/mL penicillin and streptomycin (Invitrogen). HUVEC (Human umbilical vein endothelial cells) were cultured in EGM-2 media with supplements provided in the manufacturers BulletKit (Lonza—Walersville, Md.). All cells were maintained at 37° C. and in a 5% CO2 atmosphere.
Growth Inhibition Assays: HeLa, MDA-MB-231, PC-3M, WI-38, and HUVEC cells were plated at 5,000 cells per well in 96 well plates and allowed to attach for 20 hr (8 hr for HeLa). The media was removed and 198 μL of fresh media was added to each well. […] PBMCs were isolated and plated at 100,000 per well in 96 well plates with a volume of 197 μL. They were allowed to settle in the media for 20 hr, at which point 1 μL of 1 mg/mL phytohemagglutinin (Sigma—St. Loius Mo.) in PBS was added to stimulate proliferation (final concentration of 5 μg/mL). […] Cell proliferation was measured at t=0 (time at start of treatment) and t=72 hr using MTS AQueous non-radioactive proliferation assay (Promega—Madison, Wis.). This assay utilizes the metabolic conversion of yellow tetrazolium to a purple formazan by live cells and the color change is proportional to the number of cells. […] The absorbance at 490 nm in each well was read with a Spectramax 250 plate reader (Molecular Devices—Sunnyvale, Calif.). […] Data were fit to one site dose response curves in order to obtain specific growth inhibitory concentrations and the relative standard errors of the mean for these concentrations were calculated by the XLfit4 software. Statistical significance (p value) for the selectivity and all subsequent assays was determined with the two tailed homoscedastic Student's t-test. […]

SMILES | invasive behavior (% invading cells vs vehicle) [1] | DNA damage response (ratio of pThr68-Chk2 to total Chk2) [2] | growth inhibition potency [3] | DNA intercalation [4] | cancer cell selective growth inhibition (selectivity) [5]
CN(C)CCN1C(=O)c2cccc3cccc(c23)C1=O [A9, 2-[2-(dimethylamino)ethyl]-1H-benz[de]isoquinoline-1,3(2H)-dione] | decreases invasive behavior | evoked the strongest DNA damage response | still remains fairly potent | – | –
CCCCCCNc1ccc2c3c(cccc13)C(=O)N(CCN(C)C)C2=O [A5, 6-hexylamino-2-[2-(dimethylamino)ethyl]-1H-benz[de]isoquinoline-1,3(2H)-dione] | – | – | – | intercalates much less than the other compounds | doing so significantly (p<0.05)
